Data taken from ChEMBL document CHEMBL1141967, “N-Sulfonyl hydroxamate derivatives as inhibitors of class II fructose-1,6-diphosphate aldolase” (Bioorg Med Chem Lett, 2005).

Experiments:
[1] = target: T1, Fructose-bisphosphate aldolase A (Oryctolagus cuniculus, UniProt P00883); test: Inhibitory activity against class I FBP aldolase from rabbit
T1 sequence (P00883 whole entry): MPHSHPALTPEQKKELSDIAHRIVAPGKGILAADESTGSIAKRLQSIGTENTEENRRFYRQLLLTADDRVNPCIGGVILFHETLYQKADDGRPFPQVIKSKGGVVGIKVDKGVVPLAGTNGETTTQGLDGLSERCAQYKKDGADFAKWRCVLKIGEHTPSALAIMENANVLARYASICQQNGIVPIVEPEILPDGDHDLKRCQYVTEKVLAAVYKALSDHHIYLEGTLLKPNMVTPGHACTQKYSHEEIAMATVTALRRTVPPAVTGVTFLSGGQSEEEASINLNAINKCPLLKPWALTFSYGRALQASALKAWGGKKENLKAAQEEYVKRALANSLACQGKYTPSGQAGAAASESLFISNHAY

[2] = target: T2, Fructose-bisphosphate aldolase class 2 (Escherichia coli K-12, UniProt P0AB71); test: Inhibitory activity against class II FBP aldolase from Escherichia coli
T2 sequence (P0AB71 whole entry): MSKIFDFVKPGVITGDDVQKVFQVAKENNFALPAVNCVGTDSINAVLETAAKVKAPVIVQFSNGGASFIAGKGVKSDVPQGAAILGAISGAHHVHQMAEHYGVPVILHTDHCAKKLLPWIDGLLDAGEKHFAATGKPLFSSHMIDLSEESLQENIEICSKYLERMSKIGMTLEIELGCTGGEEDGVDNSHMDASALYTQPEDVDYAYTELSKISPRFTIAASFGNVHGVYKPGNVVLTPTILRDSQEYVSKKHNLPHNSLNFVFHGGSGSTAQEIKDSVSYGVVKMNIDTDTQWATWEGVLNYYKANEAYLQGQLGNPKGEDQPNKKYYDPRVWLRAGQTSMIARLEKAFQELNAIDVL

SMILES | Ki [1] [µM] | Ki [2] [µM]
O=C(CCP(=O)(O)O)NO | > 1000 | > 1000
O=C(CCP(=O)(O)O)NS(=O)(=O)c1ccccc1 | > 10000 | > 10000
O=C(COP(=O)(O)O)NS(=O)(=O)c1ccccc1 | > 10000 | 100
CS(=O)(=O)NC(=O)CCP(=O)(O)O | > 10000 | > 10000
CS(=O)(=O)NC(=O)COP(=O)(O)O | > 10000 | 350
O=C(COP(=O)(O)O)NO [PHOSPHOGLYCOLOHYDROXAMATE] | 1 | 0.01
